According to patent publication US20110065783A1, “HYDROXYLATED NEBIVOLOL METABOLITES” (priority 2005, published 2011):

Legend:
[1] = tested on: HUVECs isolated from White and Black American donors; assay: Acute NO release from endothelial cells of White and Black American donors (electrochemical nanosensors); type: cell-based, human; conditions: for NO (nM), Black Donors, acute NO release / NO (nM), White Donors, acute NO release: acute drug treatment 1.0 μM, mean±S.D. (n=5); for NO (nM), Black Donors, acute NO release: HUVECs from Black American donors; for NO (nM), White Donors, acute NO release: HUVECs from White donors
Description: Values are mean±S.D. (n=5).
The 4′(R)-hydroxy-5-fluoro-l-nebivolol metabolite also exceeds the activity of nebivolol and even l-nebivolol by >50%. These findings indicate that hydroxy metabolites of nebivolol have distinct and highly reproducible effects on acute NO release in human endothelial cells.
In Table 1 and FIG. 7, the comparative effects of nebivolol, d-nebivolol, l-nebivolol and six stereoselective hydroxy metabolites on NO release are shown for cells harvested from white (open bars) and black American (solid bars) donors. The release of the NO from these endothelial cells was evaluated with electrochemical nanosensors placed within close proximity to the cell surface. […] The 4′(R)-hydroxy-5-fluoro-l-nebivolol metabolite (1689-64B) also exceeds the activity of l-nebivolol by >50%. The metabolite with the least activity is similar to nebivolol. These findings indicate that hydroxy metabolites of nebivolol have distinct and highly reproducible effects on acute NO release in human endothelial cells.

[2] = tested on: human umbilical vein endothelial cells (HUVEC); assay: Peak NO release from HUVEC after acute treatment (porphyrinic probe); type: cell-based
Protocol: All measurements presented are recorded in vitro using a sensitive porphyrinic probe. NO release is measured directly from human umbilical vein endothelial cells (HUVEC). HUVEC cells were obtained from American Type Culture Collection (Manassas, Va.) and grown in Ham's F12K medium with 2 mM L-glutamine adjusted to contain 1.5 g/l sodium bicarbonate and supplemented with 0.1 mg/ml heparin and 0.03-0.05 mg/ml endothelial cell growth supplement (ECGS)=10% fetal bovine serum. The HUVEC cells were kept in an atmosphere of elevated CO2 concentration (5%). Nebivolol, its enantiomers, and nebivolol metabolites including the nebivolol glucuronides, 4-hydroxy-5′ phenol metabolite, 4-hydroxy-8′-phenol metabolite, 4-hydroxy, 5-hydroxy, 8-hydroxy metabolites, N-DAD, N-DACA and N-DAAA, are obtained from Mylan Laboratories (Morgantown, W. Va.)
All measurements of endothelial NO release are conducted in Hank's balance solution at 37° C. Cell wells are transferred to a Faraday cage and a porphyrinic sensor (diameter 0.5 mm) is positioned at a distance of 5±2 μm from the surface of the endothelial cells using an inverted microscope (Leica Microsystems, Wetzler, Germany) and a computer-assisted micromanipulator. The sensor operates with a three-electrode system: nanosensor (working electrode), saturated calomel electrode (reference electrode) and platinum wire (counter electrode, 0.5 mm diameter). The three electrodes are connected to a potentiostat/galvanostat PAR273. The baseline is stabilized after about 20 seconds. The test compounds are injected with a nanoinjector on to the surface of the cells following solubilization in buffer. The current proportional to the NO concentration is measured with the sensor, which operates in amperometric mode at a constant potential of 0.63V. Data are acquired with the use of an IBM computer with custom software and amperograms (current vs. time curves) and are recorded with a Guniry FAS1 Femtostat (Warminster, Pa.).
Nanosensors are prepared from carbon fibers. The size of the tip of carbon fiber is reduced from 6 μm to less than 1 μm by temperature controlled burning. The sensors are sensitized to NO by deposition of electrically conductive polymeric porphyrin and covered with a thin layer of Nafion. The prophyrinic microsensor has a response time of 0.1 ms at a micromolar NO concentration and 10 ms at the detection limit of 1 nM.
The nanosensor for NO is calibrated using saturated solution (concentration 1.82 mM verified with the coulometric method). Linear calibration curves are constructed for each sensor from […] before and after measurements of cell activity. The data are presented as the mean±SEM for each of the triplicate measurements. The data (calculation and plotting) are transferred to Microcal Origin Software (OriginLab Corp., Northampton, Mass.).
The HUVEC preparation is stable over the course of these experiments with the cells remaining viable in culture for >24 hours. Under non-stimulating conditions, basal levels of NO release are very low (<30 nM). Measurement of NO release as a function of treatment is conducted in individual endothelial cells. Multiple measurements of NO release can be conducted on single cells following a brief refractory period. For robust statistical analysis, separate cells are used for each concentration and type of drug used in these analyses.

human endothelial cells = assay: Capacity for NO release in human endothelial cells following chronic administration; type: cell-based

SMILES	NO (nM), Black Donors, acute NO release [1] [nM]	NO (nM), White Donors, acute NO release [1] [nM]	further results
OC(CNCC(O)C1CCc2cc(F)ccc2O1)C1CCc2cc(F)ccc2O1 (racemic) [nebivolol]	148 ± 10	218 ± 11	NO peak release ([2]; 5 μM, acute, FIG. 4): ~225 nm
Oc1cc2c(cc1F)OC(C(O)CNCC(O)C1C[C@H](O)c3cc(F)ccc3O1)CC2 (stereo partly drawn) [4 (S)-Hydroxy-7′-fluoro-6′-hydroxy-l-nebivolol]	242 ± 12	272 ± 12	
OC(CNCC(O)C1C[C@H](O)c2cc(F)ccc2O1)C1CCc2cc(F)ccc2O1 (stereo partly drawn) [4(S)-Hydroxy-l-nebivolol]	151 ± 8	204 ± 12	
OC1CC(C(O)CNCC(O)C2CCc3cc(F)ccc3O2)Oc2ccc(F)cc21 (stereo not drawn) [4-hydroxy nebivolol]			NO release compared with reference agents (in words) ([2]; 5 μM, acute, FIG. 4): approximates values measured with acetylcholine; peak NO release ([2]; 5 μM, acute, FIG. 4): exceeds 400 nM; NO release from human endothelial cells, concentration dependence (in words) ([2]; acute administration): increase NO release from human endothelial cell in concentration dependent fashion; EC50 ([2]; acute, concentration-response, FIG. 6): 500 nM; capacity for NO release following chronic administration (in words) (human endothelial cells): increase the capacity for NO release
Oc1ccc2c(c1F)CCC(C(O)CNCC(O)C1C[C@@H](O)c3cc(F)ccc3O1)O2 (stereo partly drawn) [4′(R)-Hydroxy-5-fluoro-6-hydroxy-l-nebivolol]	316 ± 17	407 ± 27	NO release activity in excess of l-nebivolol ([1]; acute treatment, compared with l-nebivolol (b247 also nebivolol)): > 50%
Oc1cc2c(cc1F)OC(C(O)CNCC(O)C1C[C@@H](O)c3cc(F)ccc3O1)CC2 (stereo partly drawn) [4′(R)-Hydroxy-7-fluoro-6-hydroxy-l-nebivolol]	383 ± 18	476 ± 20	NO release, black donors ([1]; acute treatment, endothelial cells from black donors): 383 ± 18 nmol/L; NO release, white donors ([1]; acute treatment, endothelial cells from white donors): 476 ± 20 nmol/L; increase in NO release as compared to nebivolol ([1]; acute treatment, white and black donors): nearly two-fold increase
OC(CNCC(O)C1C[C@@H](O)c2cc(F)ccc2O1)C1CCc2cc(F)ccc2O1 (stereo partly drawn) [4′(R)-Hydroxy-l-nebivolol]	194 ± 10	237 ± 11	
Oc1ccc2c(c1F)CCC(C(O)CNCC(O)C1CCc3cc(F)ccc3O1)O2 (stereo not drawn) [5-fluoro-6-hydroxy-l-nebivolol]	212 ± 9	258 ± 20	
Oc1c(F)ccc2c1CCC(C(O)CNCC(O)C1CCc3cc(F)ccc3O1)O2 (stereo not drawn) [5-hydroxy nebivolol]			peak NO release ([2]; 10 μM, acute, FIG. 3): approximately 220 nM
Oc1cc(F)cc2c1OC(C(O)CNCC(O)C1CCc3cc(F)ccc3O1)CC2 (stereo not drawn) [8-hydroxy nebivolol]			peak NO release ([2]; 10 μM, acute, FIG. 3): approximately 220 nM
O[C@H](CNC[C@@H](O)[C@H]1CCc2cc(F)ccc2O1)[C@@H]1CCc2cc(F)ccc2O1 [d-nebivolol, reference compound]	87 ± 6	127 ± 17	
O[C@@H](CNC[C@H](O)[C@H]1CCc2cc(F)ccc2O1)[C@@H]1CCc2cc(F)ccc2O1 [l-nebivolol, reference compound]	192 ± 9	268 ± 12	
